Results reported in patent publication US20160145257A1, “SUBSTITUTED XANTHINES AND METHODS OF USE THEREOF” (Hydra Biosciences, Inc., priority 2013, published 2016).

Molecular target: T1, hTRPC5 (Homo sapiens, UniProt Q9UL62)
T1 construct: expressed in transfected cells; host or cells: HEK293 TREx cells with inducible TRPC5 expression
T1 sequence (Q9UL62 1-973): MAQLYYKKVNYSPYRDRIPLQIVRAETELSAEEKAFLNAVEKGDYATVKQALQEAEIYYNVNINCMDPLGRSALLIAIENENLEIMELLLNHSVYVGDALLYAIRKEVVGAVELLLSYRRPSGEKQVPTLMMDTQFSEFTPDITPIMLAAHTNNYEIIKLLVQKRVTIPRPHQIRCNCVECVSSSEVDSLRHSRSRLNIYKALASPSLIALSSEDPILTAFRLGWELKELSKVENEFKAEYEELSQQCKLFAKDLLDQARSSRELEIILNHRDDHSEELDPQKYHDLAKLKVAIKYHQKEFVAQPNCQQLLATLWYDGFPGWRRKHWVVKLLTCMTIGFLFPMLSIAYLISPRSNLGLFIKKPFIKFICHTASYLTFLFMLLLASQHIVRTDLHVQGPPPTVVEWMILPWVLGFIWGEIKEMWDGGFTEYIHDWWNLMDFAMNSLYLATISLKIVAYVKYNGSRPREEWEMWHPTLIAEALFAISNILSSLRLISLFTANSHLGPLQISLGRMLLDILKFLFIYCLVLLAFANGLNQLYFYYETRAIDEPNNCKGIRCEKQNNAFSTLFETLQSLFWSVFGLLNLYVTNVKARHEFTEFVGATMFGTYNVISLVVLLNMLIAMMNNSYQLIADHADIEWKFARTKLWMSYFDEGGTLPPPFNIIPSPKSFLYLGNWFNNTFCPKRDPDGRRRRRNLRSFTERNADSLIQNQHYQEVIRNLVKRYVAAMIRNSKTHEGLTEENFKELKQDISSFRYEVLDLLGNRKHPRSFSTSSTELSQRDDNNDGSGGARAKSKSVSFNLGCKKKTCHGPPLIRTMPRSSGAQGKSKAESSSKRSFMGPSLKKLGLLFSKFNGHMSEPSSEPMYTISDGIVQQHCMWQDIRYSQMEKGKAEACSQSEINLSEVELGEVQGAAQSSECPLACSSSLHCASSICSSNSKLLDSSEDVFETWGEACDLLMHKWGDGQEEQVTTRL
Assay: Whole-cell patch clamp, block of LaCl3-activated TRPC5 inward current
Type: cell-based
Conditions: TRPC5-expressing HEK293 TREx cells, 80 μM LaCl3, inward current, IC50 estimated from 5 μM and 500 nM, read-out: hTRPC5 Patch La3+ Inwd (nM) (All Batches)
Description: In certain embodiments, exemplary compounds of Formula I and Formula II include the compounds described in Table 1 and in the Examples. A compound described herein may be tested for its ability to block both inward and outward currents through the TRPC5 channel, e.g., by an assay as described in Example 1. For example, IC50 of a compound of Formula I or Formula II was estimated by testing the compound at 5 μM and 500 nM. […] IC50 for a compound of Formula I or Formula II between 500 nM and 5 μM was similarly estimated. As shown, “A” refers to an IC50<100 nM. “B” refers to an IC50 between 100 nM and 500 nM. “C” refers to an IC50 between 500 nM and 1000 nM. “D” refers to an IC50 between 1 μM and 2 μM. “E” refers to an IC50 between 2 μM and 10 μM. “F” refers to […]. “ND” refers to compounds wherein the IC50 was not determined.
Patch clamp experiments permit the detection of currents through the TRPC5 channel in the cell line described above. In normal whole-cell patch clamp recordings, a glass electrode is brought into contact with a single cell and a high-resistance (gigaohm) seal is established with the cell membrane. The membrane is then ruptured to achieve the whole-cell configuration, permitting control of the voltage of the cell membrane and measurement of currents flowing across the membrane using the amplifier attached to the electrode and resulting in the replacement of cytoplasm with the pipette solution. A perfusion system permits control of the extracellular solution, including the addition of blockers and activators of the current. The current can be activated by including 1.4 μM free Ca^2+ in the pipette (intracellular) solution, and 80 μM LaCl3 in the extracellular solution.
TRPC5 cells were induced 20-48 hours, removed from growth plates, and replated at low density (to attain good single-cell physical separation) on glass coverslips for measurement. In some cases, cells were grown in low density overnight on glass coverslips. Patch clamp recordings were made in the whole-cell mode with a holding potential of −40 mV. Every 5 seconds, a voltage ramp was applied from −120 to +100 mV, 400 ms in duration. Currents elicited were quantified at −80 mV and +80 mV. The internal solution consisted of 140 mM cesium aspartate, 10 mM HEDTA, 2 mM CaCl2, 2.27 mM MgCl2 and 10 mM HEPES, pH 7.2, with 1,400 nM calculated free Ca^2+. The external solution consisted of 150 mM NaCl, 4.5 mM KCl, 1 mM MgCl2, 2 mM CaCl2, 10 mM HEPES, 10 mM glucose, 1 mM EGTA, pH 7.4. Upon addition of LaCl3, TRPC5 current was induced only in TRPC5-expressing cells and not in parental HEK293 TREx cells. Removal of the LaCl3 stimulus causes most of the current to go away. Potential blockers were tested for ability to block both inward and outward currents in the continued presence of LaCl3.
IC50 of a compound of Formula I or Formula II was estimated by testing the compound at 5 μM and 500 nM. […] IC50 for a compound of Formula I or Formula II between 500 nM and 5 μM was similarly estimated.

CCOC(=O)c1cccc(Oc2nc3c(c(=O)n(C)c(=O)n3C)n2Cc2cccc(Br)c2)c1 [Compound 57, Ethyl 3-(7-(3-bromobenzyl)-1,3-dimethyl-2,6-dioxo-2,3,6,7-tetrahydro-1H-purin-8-yloxy)benzoate]
IC50: < 100 nM

Cn1c(=O)c2c(nc(SCc3ccccc3F)n2Cc2ccc(Cl)c(Cl)c2)n(C)c1=O [Compound 58]
IC50: 100 to 500 nM

Cn1c(=O)c2c(nc(SCCCC#N)n2Cc2cccc(Cl)c2)n(C)c1=O [Compound 62]
IC50: 1000 to 2000 nM

CN(Cc1ccccc1)c1nc2c(c(=O)n(C)c(=O)n2C)n1Cc1ccc(Cl)c(Cl)c1 [Compound 67]
IC50: 2000 to 10000 nM

Cn1c(=O)c2c(nc(Oc3cccc(C(F)(F)F)c3)n2Cc2ccc(Cl)cc2)n(C)c1=O [Compound 73]
IC50: 100 to 500 nM

CCc1ccccc1Oc1nc2c(c(=O)n(C)c(=O)n2C)n1Cc1ccc(Cl)cc1 [Compound 74]
IC50: 100 to 500 nM

Cc1ccc(Oc2nc3c(c(=O)n(C)c(=O)n3C)n2Cc2cccc(Cl)c2)cc1 [Compound 76]
IC50: 2000 to 10000 nM

Cn1c(=O)c2c(nc(CCCN3CCCC3)n2Cc2cccc(Br)c2)n(C)c1=O [Compound 81]
IC50: 2000 to 10000 nM

CCCOCCCc1nc2c(c(=O)n(C)c(=O)n2C)n1Cc1cccc(Br)c1 [Compound 82, 7-(3-bromobenzyl)-1,3-dimethyl-8-(3-propoxypropyl)-1H-purine-2,6(3H,7H)-dione]
IC50: 1000 to 2000 nM

CCOC(=O)C(C)(C)CCc1nc2c(c(=O)n(C)c(=O)n2C)n1Cc1cccc(Br)c1 [Compound 83]
IC50: 2000 to 10000 nM

CCOC(=O)CCC(C)(C)c1nc2c(c(=O)n(C)c(=O)n2C)n1Cc1cccc(Br)c1 [Compound 84]
IC50: 1000 to 2000 nM

CCOC(=O)CC(C)c1nc2c(c(=O)n(C)c(=O)n2C)n1Cc1cccc(Br)c1 (stereo not shown) [Compound 86]
IC50: 100 to 500 nM

CCOC(=O)C(C)Cc1nc2c(c(=O)n(C)c(=O)n2C)n1Cc1cccc(Br)c1 (stereo not shown) [Compound 87]
IC50: 500 to 1000 nM

CCCOCCc1nc2c(c(=O)n(C)c(=O)n2C)n1Cc1cccc(OC(F)(F)F)c1 [Compound 88]
IC50: 500 to 1000 nM

CCCOCCc1nc2c(c(=O)n(C)c(=O)n2C)n1Cc1ccc(OC)cc1 [Compound 89]
IC50: 2000 to 10000 nM

CCCOCCc1nc2c(c(=O)n(C)c(=O)n2C)n1Cc1cccc(C)c1 [Compound 90]
IC50: 1000 to 2000 nM

CCCOCCc1nc2c(c(=O)n(C)c(=O)n2C)n1Cc1cccc(OC)c1 [Compound 91]
IC50: 2000 to 10000 nM

CCCOCCc1nc2c(c(=O)n(C)c(=O)n2C)n1Cc1cccc(F)c1 [Compound 92]
IC50: 2000 to 10000 nM

CCCOCCc1nc2c(c(=O)n(C)c(=O)n2C)n1Cc1ccc(Cl)cc1 [Compound 93]
IC50: 500 to 1000 nM

CCCOCCc1nc2c(c(=O)n(C)c(=O)n2C)n1Cc1ccc(C)cc1 [Compound 94, 1,3-dimethyl-7-(4-methylbenzyl)-8-(2-propoxyethyl)-1H-purine-2,6(3H,7H)-dione]
IC50: 2000 to 10000 nM

CCCOCCc1nc2c(c(=O)n(C)c(=O)n2C)n1Cc1ccc(Br)cc1 [Compound 95, 7-(4-bromobenzyl)-1,3-dimethyl-8-(2-propoxyethyl)-1H-purine-2,6(3H,7H)-dione]
IC50: 1000 to 2000 nM

CCOC(=O)CC(C)(C)c1nc2c(c(=O)n(C)c(=O)n2C)n1Cc1cccc(Br)c1 [Compound 96, Ethyl 3-(7-(3-bromobenzyl)-1,3-dimethyl-2,6-dioxo-2,3,6,7-tetrahydro-1H-purin-8-yl)-3-methylbutanoate]
IC50: 500 to 1000 nM

CCOC(=O)C(C)(C)Cc1nc2c(c(=O)n(C)c(=O)n2C)n1Cc1cccc(Br)c1 [Compound 97, Ethyl 3-(7-(3-bromobenzyl)-1,3-dimethyl-2,6-dioxo-2,3,6,7-tetrahydro-1H-purin-8-yl)-2-2-dimethylpropanoate]
IC50: 100 to 500 nM

CCCCC(O)c1nc2c(c(=O)n(C)c(=O)n2C)n1Cc1cccc(Br)c1 (stereo not shown) [Compound 98]
IC50: 2000 to 10000 nM

CCCOCCOc1nc2c(c(=O)n(C)c(=O)n2C)n1Cc1cccc(Br)c1 [Compound 99, 7-(3-bromobenzyl)-1,3-dimethyl-8-(2-propoxyethoxy)-1H-purine-2,6(3H,7H)-dione]
IC50: 100 to 500 nM

CCc1coc(C(C)(C)Sc2nc3c(c(=O)n(C)c(=O)n3C)n2Cc2cccc(Br)c2)n1 [Compound 100, 7-(3-bromobenzyl)-8-(2-(4-ethyloxazol-2-yl)propan-2-ylthio)-1,3-dimethyl-1H-purine-2,6(3H,7H)-dione]
IC50: 100 to 500 nM

Cn1c(=O)c2c(nc(Cc3cccc(C#N)c3)n2Cc2cccc(Br)c2)n(C)c1=O [Compound 101]
IC50: 2000 to 10000 nM

CCOC(=O)c1cccc(Cc2nc3c(c(=O)n(C)c(=O)n3C)n2Cc2cccc(Br)c2)c1 [Compound 102, ethyl 3-((7-(3-bromobenzyl)-1,3-dimethyl-2,6-dioxo-2,3,6,7-tetrahydro-1H-purin-8-yl)methyl)benzoate]
IC50: 1000 to 2000 nM

Cc1coc(-c2cccc(Oc3nc4c(c(=O)n(C)c(=O)n4C)n3Cc3cccc(Br)c3)c2)n1 [Compound 103, 7-(3-bromobenzyl)-1,3-dimethyl-8-(3-(4-methyloxazol-2-yl)phenoxy)-1H-purine-2,6(3H,7H)-dione]
IC50: 2000 to 10000 nM

Cc1coc(-c2cccc(Cc3nc4c(c(=O)n(C)c(=O)n4C)n3Cc3cccc(Br)c3)c2)n1 [Compound 104]
IC50: 2000 to 10000 nM

CCCCC(=O)c1nc2c(c(=O)n(C)c(=O)n2C)n1Cc1cccc(Br)c1 [Compound 105, 7-(3-bromobenzyl)-1,3-dimethyl-8-pentanoyl-1H-purine-2,6(3H,7H)-dione]
IC50: < 100 nM

CCc1coc(CSc2nc3c(c(=O)n(C)c(=O)n3C)n2Cc2cccc(OC(F)(F)F)c2)n1 [Compound 106, 8-((4-ethyloxazol-2-yl)methylthio)-1,3-dimethyl-7-(3-(trifluoromethoxy)benzyl)-1H-purine-2,6(3H,7H)-dione]
IC50: 100 to 500 nM

CCCOCCc1nc2c(c(=O)n(C)c(=O)n2C)n1Cc1cccc(Cl)c1 [Compound 107]
IC50: 500 to 1000 nM

CCCOCCc1nc2c(c(=O)n(C)c(=O)n2C)n1Cc1ccc(F)cc1 [Compound 108]
IC50: 2000 to 10000 nM

CCCOCCc1nc2c(c(=O)n(C)c(=O)n2C)n1Cc1ccc(OC(F)(F)F)cc1 [Compound 109]
IC50: 1000 to 2000 nM

Cn1c(=O)c2c(nc(Oc3cccc(Cl)c3)n2Cc2cccc(Br)c2)n(C)c1=O [Compound 110, 7-(3-bromobenzyl)-8-(3-chlorophenoxy)-1,3-dimethyl-1H-purine-2,6(3H,7H)-dione]
IC50: 100 to 500 nM

Cn1c(=O)c2c(nc(Oc3cccc(F)c3)n2Cc2cccc(Br)c2)n(C)c1=O [Compound 111, 7-(3-bromobenzyl)-8-(3-fluorophenoxy)-1,3-dimethyl-1H-purine-2,6(3H,7H)-dione]
IC50: 1000 to 2000 nM
